Data published in patent US10947289B2, “Glyco-modified atrial natriuretic peptide” (priority 2013, dated 2021).
pEC50: −log10 of the molar value.

Each compound was assayed against T1, human GC-A (Homo sapiens, UniProt P16066) (assay: cGMP elevating activity in CHO/human GC-A cells (Test Example 1)).
T1 construct: expressed in transfected cells; host or cells: CHO cells
T1 sequence (P16066 33-1061): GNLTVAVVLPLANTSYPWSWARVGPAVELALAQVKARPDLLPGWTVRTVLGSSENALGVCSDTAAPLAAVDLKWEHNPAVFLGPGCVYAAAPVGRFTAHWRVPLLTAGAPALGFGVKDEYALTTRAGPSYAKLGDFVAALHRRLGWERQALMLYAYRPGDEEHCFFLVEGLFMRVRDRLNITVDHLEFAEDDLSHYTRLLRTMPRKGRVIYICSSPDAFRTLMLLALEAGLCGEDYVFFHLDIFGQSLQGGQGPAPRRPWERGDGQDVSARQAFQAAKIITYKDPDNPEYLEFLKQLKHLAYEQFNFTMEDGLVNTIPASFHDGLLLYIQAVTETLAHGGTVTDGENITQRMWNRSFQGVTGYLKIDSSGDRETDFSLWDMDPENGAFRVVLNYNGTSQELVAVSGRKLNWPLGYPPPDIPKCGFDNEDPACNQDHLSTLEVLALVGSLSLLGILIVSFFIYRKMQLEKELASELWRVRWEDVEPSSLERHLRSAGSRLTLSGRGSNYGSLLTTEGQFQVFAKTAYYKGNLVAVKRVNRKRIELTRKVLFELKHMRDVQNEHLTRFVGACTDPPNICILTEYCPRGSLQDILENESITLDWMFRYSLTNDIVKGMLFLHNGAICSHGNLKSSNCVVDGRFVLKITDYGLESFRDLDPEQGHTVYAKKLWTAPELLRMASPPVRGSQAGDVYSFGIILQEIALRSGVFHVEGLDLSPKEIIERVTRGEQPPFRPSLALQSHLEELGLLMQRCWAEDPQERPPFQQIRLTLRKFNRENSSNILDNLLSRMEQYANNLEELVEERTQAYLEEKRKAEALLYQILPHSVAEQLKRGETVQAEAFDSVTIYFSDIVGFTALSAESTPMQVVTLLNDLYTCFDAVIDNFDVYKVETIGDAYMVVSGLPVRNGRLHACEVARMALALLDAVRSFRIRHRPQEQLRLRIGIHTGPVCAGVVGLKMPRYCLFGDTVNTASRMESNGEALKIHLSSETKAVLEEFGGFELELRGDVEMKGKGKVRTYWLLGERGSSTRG
Format: cell-based
Experimental: The cGMP elevating activity of each modified peptide prepared in Example 2 was measured by the following method:
CHO/human GC-A cells, which are CHO cells constitutively expressing human GC-A, were suspended at 2×10^5 cells/ml in α-MEM, 10% FBS, and 1% penicillin-streptomycin, inoculated at 20 μl/well (4×10^3 cells/well) onto a 384-well plate (Corning, 3826), and cultured overnight in a CO2 incubator. On the next day, the medium was removed from this plate, and then, 1.6 mM IBMX/KRB buffer was added thereto at 10 μl/well. The mixture was stirred on a plate shaker and then incubated at room temperature for 10 minutes. […] The mixture was stirred on a plate shaker and then incubated for 15 minutes in a CO2 incubator. Thereafter, a lysis buffer (50 mM phosphate buffer, pH 7.0, and 1% Triton X-100) was added thereto at 5 μl/well. The cells were lysed by stirring for 10 minutes on a plate shaker. Subsequently, the cGMP levels in the cell lysates were measured by use of a cGMP kit (manufactured by Cisbio Bioassays). Specifically, to a 384-well plate (Greiner, 784076), 5 μl/well of a diluent attached to the kit, 5 μl/well of the cell lysate, 5 μl/well of cGMP-d2, and 5 μl/well of anti cGMP-Cryptate were added. The mixture was stirred on a plate shaker and then incubated overnight at 4° C. in the dark, followed by the measurement of homogeneous time-resolved fluorescence using RubyStar (manufactured by BMG LABTECH JAPAN Ltd.). The activity value (T/C) of the test substance at each concentration was calculated when the activity value of a well supplemented with only a solvent was defined as 0 and the activity value of a well supplemented with 1 nM ANP was defined as 1.

`CC[C@H](C)[C@@H]1NC(=O)[C@H](CCCNC(=N)N)NC(=O)[C@H](CC(=O)O)NC(=O)[C@H](CCSC)NC(=O)[C@H](CCCNC(=N)N)NC(=O)CNC(=O)CNC(=O)[C@H](Cc2ccccc2)NC(=O)[C@@H](NC(=O)[C@H](CO)NC(=O)[C@H](CO)NC(=O)[C@H](CCCNC(=N)N)NC(=O)[C@H](CCCNC(=N)N)NC(=O)[C@H](CC(C)C)NC(=O)[C@H](CO)NC(=O)CCSC2CC(=O)N(CCC(=O)NCCOCCOCCOCCOCCC(=O)N[C@@H](CCC(=O)NCCO[C@@H]3O[C@H](CO)[C@@H](O[C@@H]4O[C@H](CO)[C@@H](O[C@@H]5O[C@H](CO[C@H]6O[C@H](CO)[C@@H](O)[C@H](O)[C@@H]6O[C@@H]6O[C@H](CO)[C@@H](O[C@@H]7O[C@H](CO[C@]8(C(=O)O)C[C@H](O)[C@@H](NC(C)=O)[C@H]([C@H](O)[C@H](O)CO)O8)[C@H](O)[C@H](O)[C@H]7O)[C@H](O)[C@H]6NC(C)=O)[C@@H](O)[C@H](O[C@H]6O[C@H](CO)[C@@H](O)[C@H](O)[C@@H]6O[C@@H]6O[C@H](CO)[C@@H](O[C@@H]7O[C@H](CO[C@]8(C(=O)O)C[C@H](O)[C@@H](NC(C)=O)[C@H]([C@H](O)[C@H](O)CO)O8)[C@H](O)[C@H](O)[C@H]7O)[C@H](O)[C@H]6NC(C)=O)[C@@H]5O)[C@H](O)[C@H]4NC(C)=O)[C@H](O)[C@H]3NC(C)=O)C(=O)NCCO[C@@H]3O[C@H](CO)[C@@H](O[C@@H]4O[C@H](CO)[C@@H](O[C@@H]5O[C@H](CO[C@H]6O[C@H](CO)[C@@H](O)[C@H](O)[C@@H]6O[C@@H]6O[C@H](CO)[C@@H](O[C@@H]7O[C@H](CO[C@]8(C(=O)O)C[C@H](O)[C@@H](NC(C)=O)[C@H]([C@H](O)[C@H](O)CO)O8)[C@H](O)[C@H](O)[C@H]7O)[C@H](O)[C@H]6NC(C)=O)[C@@H](O)[C@H](O[C@H]6O[C@H](CO)[C@@H](O)[C@H](O)[C@@H]6O[C@@H]6O[C@H](CO)[C@@H](O[C@@H]7O[C@H](CO[C@]8(C(=O)O)C[C@H](O)[C@@H](NC(C)=O)[C@H]([C@H](O)[C@H](O)CO)O8)[C@H](O)[C@H](O)[C@H]7O)[C@H](O)[C@H]6NC(C)=O)[C@@H]5O)[C@H](O)[C@H]4NC(C)=O)[C@H](O)[C@H]3NC(C)=O)C2=O)CSSC[C@@H](C(=O)N[C@@H](CC(N)=O)C(=O)N[C@@H](CO)C(=O)N[C@@H](Cc2ccccc2)C(=O)N[C@@H](CCCNC(=N)N)C(=O)N[C@@H](Cc2ccc(O)cc2)C(=O)O)NC(=O)CNC(=O)[C@H](CC(C)C)NC(=O)CNC(=O)[C@H](CO)NC(=O)[C@H](CCC(N)=O)NC(=O)[C@H](C)NC(=O)CNC1=O` (stereo partly drawn) [Compound 2-32, SG-(SG-)Gln*-PEG(3)-Mal-hANP(1-28)] was tested. Which pEC50 did it give?
Its pEC50 is 9.39.

How did the pEC50 turn out when `CC[C@H](C)[C@@H]1NC(=O)[C@H](CCCNC(=N)N)NC(=O)[C@H](CC(=O)O)NC(=O)[C@H](CCSC)NC(=O)[C@H](CCCNC(=N)N)NC(=O)CNC(=O)CNC(=O)[C@H](Cc2ccccc2)NC(=O)[C@@H](NC(=O)[C@H](CO)NC(=O)[C@H](CO)NC(=O)[C@H](CCCNC(=N)N)NC(=O)[C@H](CCCNC(=N)N)NC(=O)[C@H](CC(C)C)NC(=O)[C@H](CO)NC(=O)CCOCCOCCOCCOCCNC(=O)[C@H](CCCCNC(=O)CCSCC(=O)NCCO[C@@H]2O[C@H](CO)[C@@H](O[C@@H]3O[C@H](CO)[C@@H](O[C@@H]4O[C@H](CO[C@H]5O[C@H](CO)[C@@H](O)[C@H](O)[C@@H]5O[C@@H]5O[C@H](CO)[C@@H](O[C@@H]6O[C@H](CO[C@]7(C(=O)O)C[C@H](O)[C@@H](NC(C)=O)[C@H]([C@H](O)[C@H](O)CO)O7)[C@H](O)[C@H](O)[C@H]6O)[C@H](O)[C@H]5NC(C)=O)[C@@H](O)[C@H](O[C@H]5O[C@H](CO)[C@@H](O)[C@H](O)[C@@H]5O[C@@H]5O[C@H](CO)[C@@H](O[C@@H]6O[C@H](CO[C@]7(C(=O)O)C[C@H](O)[C@@H](NC(C)=O)[C@H]([C@H](O)[C@H](O)CO)O7)[C@H](O)[C@H](O)[C@H]6O)[C@H](O)[C@H]5NC(C)=O)[C@@H]4O)[C@H](O)[C@H]3NC(C)=O)[C@H](O)[C@H]2NC(C)=O)NC(=O)CCSCC(=O)NCCO[C@@H]2O[C@H](CO)[C@@H](O[C@@H]3O[C@H](CO)[C@@H](O[C@@H]4O[C@H](CO[C@H]5O[C@H](CO)[C@@H](O)[C@H](O)[C@@H]5O[C@@H]5O[C@H](CO)[C@@H](O[C@@H]6O[C@H](CO[C@]7(C(=O)O)C[C@H](O)[C@@H](NC(C)=O)[C@H]([C@H](O)[C@H](O)CO)O7)[C@H](O)[C@H](O)[C@H]6O)[C@H](O)[C@H]5NC(C)=O)[C@@H](O)[C@H](O[C@H]5O[C@H](CO)[C@@H](O)[C@H](O)[C@@H]5O[C@@H]5O[C@H](CO)[C@@H](O[C@@H]6O[C@H](CO[C@]7(C(=O)O)C[C@H](O)[C@@H](NC(C)=O)[C@H]([C@H](O)[C@H](O)CO)O7)[C@H](O)[C@H](O)[C@H]6O)[C@H](O)[C@H]5NC(C)=O)[C@@H]4O)[C@H](O)[C@H]3NC(C)=O)[C@H](O)[C@H]2NC(C)=O)CSSC[C@@H](C(=O)N[C@@H](CC(N)=O)C(=O)N[C@@H](CO)C(=O)N[C@@H](Cc2ccccc2)C(=O)N[C@@H](CCCNC(=N)N)C(=O)N[C@@H](Cc2ccc(O)cc2)C(=O)O)NC(=O)CNC(=O)[C@H](CC(C)C)NC(=O)CNC(=O)[C@H](CO)NC(=O)[C@H](CCC(N)=O)NC(=O)[C@H](C)NC(=O)CNC1=O` [Compound 2-34, SG-thioacetamide-(SG-thioacetamide-)Lys-PEG-(3)-hANP(1-28)] was run?
The pEC50 was 9.28.

With `CC[C@H](C)[C@@H]1NC(=O)[C@H](CCCNC(=N)N)NC(=O)[C@H](CC(=O)O)NC(=O)[C@H](CCSC)NC(=O)[C@H](CCCNC(=N)N)NC(=O)CNC(=O)CNC(=O)[C@H](Cc2ccccc2)NC(=O)[C@@H](NC(=O)[C@H](CO)NC(=O)[C@H](CO)NC(=O)[C@H](CCCNC(=N)N)NC(=O)[C@H](CCCNC(=N)N)NC(=O)[C@H](CC(C)C)NC(=O)[C@H](CO)NC(=O)CCOCCOCCOCCOCCNC(=O)[C@H](CCCCNC(=O)CO[C@@H]2O[C@H](CO)[C@@H](O[C@@H]3O[C@H](CO)[C@@H](O[C@@H]4O[C@H](CO[C@H]5O[C@H](CO)[C@@H](O)[C@H](O)[C@@H]5O[C@@H]5O[C@H](CO)[C@@H](O[C@@H]6O[C@H](CO[C@]7(C(=O)O)C[C@H](O)[C@@H](NC(C)=O)[C@H]([C@H](O)[C@H](O)CO)O7)[C@H](O)[C@H](O)[C@H]6O)[C@H](O)[C@H]5NC(C)=O)[C@@H](O)[C@H](O[C@H]5O[C@H](CO)[C@@H](O)[C@H](O)[C@@H]5O[C@@H]5O[C@H](CO)[C@@H](O[C@@H]6O[C@H](CO[C@]7(C(=O)O)C[C@H](O)[C@@H](NC(C)=O)[C@H]([C@H](O)[C@H](O)CO)O7)[C@H](O)[C@H](O)[C@H]6O)[C@H](O)[C@H]5NC(C)=O)[C@@H]4O)[C@H](O)[C@H]3NC(C)=O)[C@H](O)[C@H]2NC(C)=O)NC(=O)CO[C@@H]2O[C@H](CO)[C@@H](O[C@@H]3O[C@H](CO)[C@@H](O[C@@H]4O[C@H](CO[C@H]5O[C@H](CO)[C@@H](O)[C@H](O)[C@@H]5O[C@@H]5O[C@H](CO)[C@@H](O[C@@H]6O[C@H](CO[C@]7(C(=O)O)C[C@H](O)[C@@H](NC(C)=O)[C@H]([C@H](O)[C@H](O)CO)O7)[C@H](O)[C@H](O)[C@H]6O)[C@H](O)[C@H]5NC(C)=O)[C@@H](O)[C@H](O[C@H]5O[C@H](CO)[C@@H](O)[C@H](O)[C@@H]5O[C@@H]5O[C@H](CO)[C@@H](O[C@@H]6O[C@H](CO[C@]7(C(=O)O)C[C@H](O)[C@@H](NC(C)=O)[C@H]([C@H](O)[C@H](O)CO)O7)[C@H](O)[C@H](O)[C@H]6O)[C@H](O)[C@H]5NC(C)=O)[C@@H]4O)[C@H](O)[C@H]3NC(C)=O)[C@H](O)[C@H]2NC(C)=O)CSSC[C@@H](C(=O)N[C@@H](CC(N)=O)C(=O)N[C@@H](CO)C(=O)N[C@@H](Cc2ccccc2)C(=O)N[C@@H](CCCNC(=N)N)C(=O)N[C@@H](Cc2ccc(O)cc2)C(=O)O)NC(=O)CNC(=O)[C@H](CC(C)C)NC(=O)CNC(=O)[C@H](CO)NC(=O)[C@H](CCC(N)=O)NC(=O)[C@H](C)NC(=O)CNC1=O` [Compound 2-35, SG-(SG-)Lys-PEG(3)-hANP(1-28)] as the compound, how does the pEC50 read?
Its pEC50 is 9.51.
